Measured values: ChEMBL document CHEMBL2203200, “Synthesis and antitrypanosomal activity of new 6,6,7-trisubstituted thiopyrano[2,3-d][1,3]thiazoles” (Bioorg Med Chem Lett, 2012)

Columns and labels:
[1] = test system: Trypanosoma brucei brucei; experiment: Antimicrobial activity against bloodstream forms of Trypanosoma brucei brucei 90-13 at 1 ug/ml after 72 hrs by resazurin assay; format: functional; settings: 90-13, 72 h
[2] = test system: Trypanosoma brucei gambiense; experiment: Antimicrobial activity against bloodstream forms of Trypanosoma brucei gambiense Feo after 72 hrs by resazurin assay; format: functional, organism-based
[3] = test system: Trypanosoma brucei brucei; experiment: Antimicrobial activity against bloodstream forms of Trypanosoma brucei brucei 90-13 at 10 ug/ml after 72 hrs by resazurin assay; format: functional; settings: 90-13, 72 h
[4] = test system: Trypanosoma brucei brucei; experiment: Antimicrobial activity against bloodstream forms of Trypanosoma brucei brucei 90-13 after 72 hrs by resazurin assay; format: functional, organism-based; settings: 90-13, 72 h
[5] = test system: Trypanosoma brucei gambiense; experiment: Antimicrobial activity against bloodstream forms of Trypanosoma brucei gambiense Feo at 10 ug/ml after 72 hrs by resazurin assay; format: functional
[6] = test system: Trypanosoma brucei gambiense; experiment: Antimicrobial activity against bloodstream forms of Trypanosoma brucei gambiense Feo at 1 ug/ml after 72 hrs by resazurin assay; format: functional

IC50 [2] [nM]	IC50 [4] [nM]	Compound	inhibition at 1 µg/mL [1] [%]	inhibition at 10 µg/mL [3] [%]	inhibition at 10 µg/mL [5] [%]	inhibition at 1 µg/mL [6] [%]
423	262	COc1ccc([C@H]2c3sc(=O)[nH]c3SC[C@]23CC(=O)N(c2ccc(Cl)cc2)C3=O)cc1OC (relative stereo)	82.4	93.6	–	–
3620	2400	CCN(CC)c1ccc([C@H]2c3sc(=O)[nH]c3SC[C@]23CC(=O)N(c2ccc(Cl)cc2)C3=O)cc1 (relative stereo)	21.1	98.2	–	–
1470	1280	CN(C)c1ccc([C@H]2c3sc(=O)[nH]c3SC[C@]23CC(=O)N(c2ccc(Cl)cc2)C3=O)cc1 (relative stereo)	36.8	98.2	–	–
–	–	O=C1C[C@]2(CSc3[nH]c(=O)sc3[C@@H]2c2ccccc2O)C(=O)N1c1ccc(Cl)cc1 (relative stereo)	13.4	11.5	19.3	0.9
–	–	O=C1C[C@]2(CSc3[nH]c(=O)sc3[C@@H]2c2ccccc2O)C(=O)N1c1ccc(O)cc1 (relative stereo)	7	18.5	15.4	< 5
–	–	Cc1cccc(N2C(=O)C[C@]3(CSc4[nH]c(=O)sc4[C@@H]3c3ccccc3O)C2=O)c1 (relative stereo)	5.5	24.5	15.3	< 5
–	–	COc1cc([C@H]2c3sc(=O)[nH]c3SC[C@@]2(CC(=O)O)C(=O)O)ccc1OCc1ccccc1 (relative stereo)	18.1	< 5	–	–
–	–	COc1cc([C@H]2c3sc(=O)[nH]c3SC[C@@]2(CC(=O)O)C(=O)O)ccc1OC(F)F (relative stereo)	11.3	< 5	–	–
–	–	CN(C)c1ccc([C@H]2c3sc(=O)[nH]c3SC[C@@]2(CC(=O)O)C(=O)O)cc1 (relative stereo)	5.3	< 5	–	–
–	–	CCN(CC)c1ccc([C@H]2c3sc(=O)[nH]c3SC[C@@]2(CC(=O)O)C(=O)O)cc1 (relative stereo)	< 5	5.6	–	–
–	–	COc1ccc([C@H]2c3sc(=O)[nH]c3SC[C@]23CC(=O)N(c2ccc(Cl)cc2)C3=O)cc1 (relative stereo)	10.6	13	9.8	2.3
5.2	3.2	N=C(N)c1ccc(OCCCCCOc2ccc(C(=N)N)cc2)cc1 [PENTAMIDINE]	–	–	–	–
